What was measured:
[1] = In vivo pharmacokinetic analysis, single dose, ICR mice; settings: mouse, male, plasma; for AUC(0-inf) / AUC(0-t) / Cmax / Tmax / half-life: single dose; for bioavailability: PO 10 mg/kg vs IV 2 mg/kg, read-out: F % (bioavailability)
Protocol: This is a single-dose study in ICR mice (male, n=9/administration) with intravenous and oral administration. Compound concentrations in plasma were measured and calculated for pharmacokinetic (PK) analysis via WinNonLin 6.4.

SYK kinase = SYK kinase (Homo sapiens, UniProt P43405); assay: SYK kinase assay (HTRF KinEASE-TK); type: biochemical; settings: class symbols, read-out: Syk inhibition IC50
Protocol: A homogeneous time-resolved fluorescence (HTRF) assay was performed to assess the potential inhibitory effect of compounds on SYK kinase. The HTRF KinEASE-TK kit (Cisbio) was used. During the step, kinase will phosphorylate the substrate, and the resulting fluorescence signal is proportional to the phosphorylation level. The assay was performed in the following steps: First, the testing compounds were diluted 1:3 in succession in DMSO. The 1× kinase buffer contained 1 volume of 5× enzymatic buffer with 4 volumes of distilled water, 5 mM MgCl2, 1 mM MnCl2, and 1 mM DTT. The assays were assembled in 384 well plates (784075, Greiner) where 10 nl of compound solutions were added into each well, and the plates were centrifuged at 1000 g for 1 min. Then, 5 μl of 2×SYK in 1× kinase buffer were added to each well. The plates were centrifuged at 1000 g for 30 s and then incubated at room temperature for 10 min. The reaction was initiated by adding […] of premixed 2×TK-substrate-biotin and ATP mixture in 1× kinase buffer to the assay plates. The plates were centrifuged at 1000 g for 30 s and incubated at room temperature for 30 min. Phosphorylation was detected by adding 5 μl of 4×Sa-XL 665 in HTRF detection buffer into each well of the assay plates. The plates were centrifuged plates at 1000 g for 30 sec, and then incubated at room temperature for 1 h. Finally, the plates were read on an Envision 2104 plate reader (PerkinElmer) and the fluorescence signal was measured at 615 nm (Cryptate) and 665 nm (XL665).
A ratio (665/615 nm) was calculated for each well. The inhibition ratio was calculated as follow: […]
IC50 was calculated by fitting % Inhibition values and log of compound concentrations to nonlinear regression (dose response−variable slope) with GraphPad 6.0.

Ba/F3-TEL-SYK cells = target: T1, Ba/F3-TEL-SYK cells (Homo sapiens, UniProt P43405); assay: Ba/F3-TEL-SYK cell-based assay (CellTiter-Glo proliferation); settings: 72 hr, read-out: BaF3 Cell assay IC50
T1 construct: fused on or other part: N-terminal part of TEL (ETV6) with its oligomerising PNT/SAM domain, fused before the SYK part that carries the kinase domain; P41212 (Transcription factor ETV6)
Protocol: CellTiter-Glo® Luminescent Cell Viability Assay was used to determine the number of viable cells in culture based on quantitation of the ATP present, as an indicator of metabolically active cells. The assay was performed in the following steps: First, the testing compounds were dissolved in DMSO to make a stock solution. The stocks (10 mM) were then diluted to varying concentrations: […], 0.305 and 0.102 μM. An aliquot of 0.2 μl of diluted compounds were added to the 384 well assay plate. Second, added 40 μl of cell suspension with 800 Ba/F3-TEL-SYK cells into each well and incubated the plate at 37° C., 5% CO2 for 72 hr. Then, added 20 μl Cell Titer-Glo Reagent into each well of the cell culture plate. Mixed the contents for 2 min on an orbital shaker to lyse cells, and rest the plate at room temperature for 30 min. Finally, luminescence values were obtained using an Envision 2104 plate reader (PerkinElmer) and calculated the average data and Standard Deviation (SD) of DMSO and Reference (GS-9973, 1 μM) as high control and low control. To determine the IC50 value, fit the data using non-linear regression equation.

SMILES	AUC(0-inf) ([1]; IV Administration (2 mg/kg)) [ng·h/mL]	AUC(0-t) ([1]; IV Administration (2 mg/kg)) [ng·h/mL]	Cmax ([1]; IV Administration (2 mg/kg)) [ng/mL]	Tmax ([1]; IV Administration (2 mg/kg)) [min]	half-life ([1]; IV Administration (2 mg/kg)) [min]	AUC(0-inf) ([1]; PO Administration (10 mg/kg)) [ng·h/mL]	AUC(0-t) ([1]; PO Administration (10 mg/kg)) [ng·h/mL]	Cmax ([1]; PO Administration (10 mg/kg)) [ng/mL]	Tmax ([1]; PO Administration (10 mg/kg)) [min]	half-life ([1]; PO Administration (10 mg/kg)) [min]	bioavailability [1] [%]	IC50 (SYK kinase) [nM]	GI50 (Ba/F3-TEL-SYK cells) [nM]
COc1cc(Nc2nc(-c3ccc4c(c3)OC(C)(C)C(=O)N4)cn3ncnc23)ccc1N1CCOCC1 [I26, 7-(8-((3-methoxy-4-morpholinophenyl)amino)-[1,2,4]triazolo[1,5-a]pyrazin-6-yl)-2,2-dimethyl-2H-benzo[b][1,4]oxazin-3(4H)-one]												50 to 500	50 to 500
COc1cc(Nc2nc(-c3ccc4c(c3)OCC(=O)N4)cn3ncnc23)ccc1N1CCOCC1 [I28, 7-(8-((3-methoxy-4-morpholinophenyl)amino)-[1,2,4]triazolo[1,5-a]pyrazin-6-yl)-2H-benzo[b][1,4]oxazin-3(4H)-one]												≤ 50	50 to 500
c1nc2c(Nc3ccc(N4CC5CC4CN5C4COC4)cc3)nc(-c3ccc4cc[nH]c4c3)cn2n1 (stereo not drawn) [I82, 6-(1H-indol-6-yl)-N-(4-(5-(oxetan-3-yl)-2,5-diazabicyclo[2.2.1]heptan-2-yl)phenyl)-[1,2,4]triazolo[1,5-a]pyrazin-8-amine]												≤ 50	500 to 5000
COc1cc(Nc2nc(-c3ccc4cc[nH]c4c3)cn3ncnc23)ccc1N1CC2CC1CN2C1COC1 (stereo not drawn) [I76, 6-(1H-indol-6-yl)-N-(3-methoxy-4-(5-(oxetan-3-yl)-2,5-diazabicyclo[2.2.1]heptan-2-yl)phenyl)-[1,2,4]triazolo[1,5-a]pyrazin-8-amine]												≤ 50	50 to 500
Nc1cncc(-c2cn3ncnc3c(Nc3ccc(N4CCN(C5COC5)CC4)cc3)n2)n1 [I55, 6-(6-aminopyrazin-2-yl)-N-(4-(4-(oxetan-3-yl)piperazin-1-yl)phenyl)-[1,2,4]triazolo[1,5-a]pyrazin-8-amine]												≤ 50	500 to 5000
CC(C)Oc1cc(Nc2nc(-c3ccc4cn[nH]c4c3)cn3ncnc23)ccc1N1CCOCC1 [I75, 6-(1H-indazol-6-yl)-N-(3-isopropoxy-4-morpholinophenyl)-[1,2,4]triazolo[1,5-a]pyrazin-8-amine]												50 to 500	500 to 5000
c1nc2c(Nc3ccc(N4CC5(COC5)C4)cc3)nc(-c3ccc4cc[nH]c4c3)cn2n1 [I61, N-(4-(2-oxa-6-azaspiro[3.3]heptan-6-yl)phenyl)-6-(1H-indol-6-yl)-[1,2,4]triazolo[1,5-a]pyrazin-8-amine]												≤ 50	50 to 500
CC(C)N1C[C@@H]2C[C@@H]1CN2c1ccc(Nc2nc(-c3ccc4[nH]ccc4c3)cn3ncnc23)cc1 [I70, 6-(1H-indol-5-yl)-N-(4-((1S,4R)-5-isopropyl-2,5-diazabicyclo[2.2.1]heptan-2-yl)phenyl)-[1,2,4]triazolo[1,5-a]pyrazin-8-amine]												50 to 500	500 to 5000

More lines, now with the values ahead:

AUC(0-inf) ([1]; IV Administration (2 mg/kg)) [ng·h/mL]	AUC(0-t) ([1]; IV Administration (2 mg/kg)) [ng·h/mL]	Cmax ([1]; IV Administration (2 mg/kg)) [ng/mL]	Tmax ([1]; IV Administration (2 mg/kg)) [min]	half-life ([1]; IV Administration (2 mg/kg)) [min]	AUC(0-inf) ([1]; PO Administration (10 mg/kg)) [ng·h/mL]	AUC(0-t) ([1]; PO Administration (10 mg/kg)) [ng·h/mL]	Cmax ([1]; PO Administration (10 mg/kg)) [ng/mL]	Tmax ([1]; PO Administration (10 mg/kg)) [min]	half-life ([1]; PO Administration (10 mg/kg)) [min]	bioavailability [1] [%]	IC50 (SYK kinase) [nM]	GI50 (Ba/F3-TEL-SYK cells) [nM]	SMILES
4670	4670	7360	4.8	43.2	14500	14500	14400	15	196	62	≤ 50	≤ 50	c1nc2c(Nc3ccc(N4CCN(C5COC5)CC4)cc3)nc(-c3ccc4cc[nH]c4c3)cn2n1 [I57, 6-(1H-indol-6-yl)-N-(4-(4-(oxetan-3-yl)piperazin-1-yl)phenyl)-[1,2,4]triazolo[1,5-a]pyrazin-8-amine]
11400	11200	8810	4.8	99	28500	28500	2160	240	100	50.8	≤ 50	50 to 500	c1nc2c(Nc3ccc(N4CCOCC4)cc3)nc(-c3ccc4cc[nH]c4c3)cn2n1 [I10, 6-(1H-indol-6-yl)-N-(4-morpholinophenyl)-[1,2,4]triazolo[1,5-a]pyrazin-8-amine]
1680	1680	5110	4.8	42.6	902	895	2570	15	89.4	10.7	≤ 50	≤ 50	COc1cc(Nc2nc(-c3ccc4cc[nH]c4c3)cn3ncnc23)ccc1N1CCN(C2COC2)CC1 [I58, 6-(1H-indol-6-yl)-N-(3-methoxy-4-(4-(oxetan-3-yl)piperazin-1-yl)phenyl)-[1,2,4]triazolo[1,5-a]pyrazin-8-amine]
1010	1010	1870	4.8	34.2	2260	1960	696	15	168	38.9	≤ 50	≤ 50	COc1cc(Nc2nc(-c3ccc4cc[nH]c4c3)cn3ncnc23)ccc1N1CCOCC1 [I2, 6-(1H-indol-6-yl)-N-(3-methoxy-4-morpholinophenyl)-[1,2,4]triazolo[1,5-a]pyrazin-8-amine]
500	499	1640	4.8	39	151	145	268	15	46.8	5.81	≤ 50	≤ 50	COc1cc(Nc2nc(-c3ccc4cn[nH]c4c3)cn3ncnc23)ccc1N1CCN(C2COC2)CC1 [I54, 6-(1H-indazol-6-yl)-N-(3-methoxy-4-(4-(oxetan-3-yl)piperazin-1-yl)phenyl)-[1,2,4]triazolo[1,5-a]pyrazin-8-amine]
2300	2290	3960	4.8	590	7370	7330	7520	15	265	64.2	≤ 50	≤ 50	c1nc2c(Nc3ccc(N4CCN(C5COC5)CC4)cc3)nc(-c3ccc4cn[nH]c4c3)cn2n1 [I53, 6-(1H-indazol-6-yl)-N-(4-(4-(oxetan-3-yl)piperazin-1-yl)phenyl)-[1,2,4]triazolo[1,5-a]pyrazin-8-amine]
983	980	2520	4.8	15	448	381	88.8	30	54	7.77	≤ 50	≤ 50	COc1cc(Nc2nc(-c3ccc4cn[nH]c4c3)cn3ncnc23)ccc1N1CCOCC1 [I1, 6-(1H-indazol-6-yl)-N-(3-methoxy-4-morpholinophenyl)-[1,2,4]triazolo[1,5-a]pyrazin-8-amine]
											≤ 50	500 to 5000	FC(F)Oc1cc(Nc2nc(-c3ccc4cc[nH]c4c3)cn3ncnc23)ccc1N1CC2CC1CN2C1COC1 (stereo not drawn) [I78, N-(3-(difluoromethoxy)-4-(5-(oxetan-3-yl)-2,5-diazabicyclo[2.2.1]heptan-2-yl)phenyl)-6-(1H-indol-6-yl)-[1,2,4]triazolo[1,5-a]pyrazin-8-amine]
											≤ 50	50 to 500	CCOc1cc(Nc2nc(-c3ccc4cc[nH]c4c3)cn3ncnc23)ccc1N1CC2CC1CN2C1COC1 (stereo not drawn) [I79, N-(3-ethoxy-4-(5-(oxetan-3-yl)-2,5-diazabicyclo[2.2.1]heptan-2-yl)phenyl)-6-(1H-indol-6-yl)-[1,2,4]triazolo[1,5-a]pyrazin-8-amine]
